# Reference: patent US20220204439A1, “LIPIDS AND LIPID NANOPARTICLE FORMULATIONS FOR DELIVERY OF NUCLEIC ACIDS” (Acuitas Therapeutics, Inc., priority 2015, published 2022)
# Tested on: luciferase expression in the liver
# Assay: In vivo luciferase mRNA expression in mouse liver with lipid nanoparticle formulations
# Design: species or system C57BL/6 mice
# Settings: 0.3 mg mRNA/kg, tail vein injection, liver 4 hours after administration; LNP 50% cationic lipid/10% DSPC/38.5% cholesterol/1.5% PEG-DMA; FLuc mRNA
# Method: Cationic lipid (MC3), DSPC, cholesterol and PEG-lipid were solubilized in ethanol at a molar ratio of 50:10:38.5:1.5. Lipid nanoparticles (LNP) were prepared at a total lipid to mRNA weight ratio of approximately 10:1 to 30:1. Briefly, the mRNA was diluted to 0.2 mg/mL in 10 to 50 mM citrate buffer, pH 4. Syringe pumps were used to mix the ethanolic lipid solution with the mRNA aqueous solution at a ratio of about 1:5 to 1:3 (vol/vol) with total flow rates above 15 ml/min. The ethanol was then removed and the external buffer replaced with PBS by dialysis. Finally, the lipid nanoparticles were filtered through a 0.2 μm pore sterile filter. Lipid nanoparticle particle size was 70-90 nm diameter as determined by quasi-elastic light scattering using a Nicomp 370 submicron particle sizer (Santa Barbara, Calif.).
# Studies were performed in 6-8 week old female C57BL/6 mice (Charles River) according to guidelines established by an institutional animal care committee (ACC) and the Canadian Council on Animal Care (CCAC). Varying doses of mRNA-lipid nanoparticle were systemically administered by tail vein injection and animals euthanized at specific time points (1, 2, 4, 8 and 24 hrs) post-administration. Liver and spleen were collected in pre-weighted tubes, weights determined, immediately snap frozen in liquid nitrogen and stored at −80° C. until processing for analysis.
# For liver, approximately 50 mg was dissected for analyses in a 2 mL FastPrep tubes (MP Biomedicals, Solon Ohio). ¼″ ceramic sphere (MP Biomedicals) was added to each tube and 500 μL of Glo Lysis Buffer—GLB (Promega, Madison Wis.) equilibrated to room temperature was added to liver tissue. Liver tissues were homogenized with the FastPrep24 instrument (MP Biomedicals) at 2×6.0 m/s for 15 seconds. Homogenate was incubated at room temperature for 5 minutes prior to a 1:4 dilution in GLB and assessed using SteadyGlo Luciferase assay system (Promega). Specifically, 50 μL of diluted tissue homogenate was reacted with 50 μL of SteadyGlo substrate, shaken for 10 seconds followed by 5 minute incubation and then quantitated using a CentroXS^3 LB 960 luminometer (Berthold Technologies, Germany). The amount of protein assayed was determined by using the BCA protein assay kit (Pierce, Rockford Ill.). Relative luminescence units (RLU) were then normalized to total ug protein assayed. To convert RLU to ng luciferase a standard curve was generated with QuantiLum Recombinant Luciferase (Promega). Based in the data provided in FIG. 1, the four-hour time point was chosen for efficacy evaluation of the lipid formulations (see Example 29).
# The FLuc mRNA (L-6107) from Trilink Biotechnologies will express a luciferase protein, originally isolated from the firefly, Photinus pyralis. FLuc is commonly used in mammalian cell culture to measure both gene expression and cell viability. It emits bioluminescence in the presence of the substrate, luciferin. This capped and polyadenylated mRNA is fully substituted with 5-methylcytidine and pseudouridine.
# The cationic lipids shown in Table 2 have previously been tested with nucleic acids. For comparative purposes, these lipids were also used to formulate lipid nanoparticles containing the FLuc mRNA (L-6107) using an in line mixing method, as described in example 28 and in PCT/US10/22614, which is hereby incorporated by reference in its entirety. […] Relative activity was determined by measuring luciferase expression in the liver 4 hours following administration via tail vein injection as described in example 28. The activity was compared at a dose of 0.3 and 1.0 mg mRNA/kg and expressed as ng luciferase/g liver measured 4 hours after administration, as described in Example 28. […]
row,Structure (SMILES),Liver Luc @ 0.3 mg/kg (ng luc/g liver)
1,CCCCCCCC(=O)N(CCCN1CCCC1)C(CCCCCCCCC(=O)OCC(CCCC)CCCCCC)CCCCCCCCC(=O)OCC(CCCC)CCCCCC (centres unmarked) [Compound 14],2851 ± 438 ng luc/g liver
2,CCCCCCCCC(=O)N(CCCN1CCCC1)C(CCCCCCCCC(=O)OCC(CCCC)CCCCCC)CCCCCCCCC(=O)OCC(CCCC)CCCCCC (centres unmarked) [Compound 15],2708 ± 924 ng luc/g liver
3,CCCCC/C=C\C/C=C\CCCCCCCCC(CCCCCCCC/C=C\C/C=C\CCCCC)C(=O)N(CCCCCCCCC)CCCN(C)C [Compound 16],231 ± 100 ng luc/g liver
4,CCCCCCCCCCC(CCCCCCCC)COC(=O)CCCCCC(CCCCCC(=O)OCC(CCCCCCCC)CCCCCCCCCC)N(CCCN(C)C)C(=O)CCCCCCCC (centres unmarked) [Compound 41],832 ± 298 ng luc/g liver

# Same assay, conditions: 0.3 mg mRNA/kg, tail vein injection, liver 4 hours after administration; LNP 50% cationic lipid/10% DSPC/38.5% cholesterol/1.5% PEG-DMG; FLuc mRNA
row,Structure (SMILES),Liver Luc @ 0.3 mg/kg dose
1,"CCCCCC/C=C\C/C=C\COC(=O)CCCCCCCC(CCCCCCCC(=O)OC/C=C\CCCCCC)OC(=O)CCCN(C)C (centres unmarked) [319 (2% PEG), reference compound]",258 ± 67 ng luciferase/g liver
2,"CCCCC(CC)C(=O)OCCCCCCCCCC(CCCCCCCCCOC(=O)C(CC)CCCC)OC(=O)CCCN(C)C (centres unmarked) [Compound 137, reference compound]",281 ± 203 ng luciferase/g liver
3,"CCCCC/C=C\C/C=C\CCCCCCCCOCC(CN(C)C)OCCCCCCCC/C=C\C/C=C\CCCCC (centres unmarked) [DLinDMA, reference compound]",13 ± 3 ng luciferase/g liver
4,"CCCCC/C=C\C/C=C\CCCCCCCCC(CCCCCCCC/C=C\C/C=C\CCCCC)OC(=O)CCN(C)C [MC2, reference compound]",4 ± 1 ng luciferase/g liver
5,"CCCCC/C=C\C/C=C\CCCCCCCCC(CCCCCCCC/C=C\C/C=C\CCCCC)OC(=O)CCCCN(C)C [MC4, reference compound]",41 ± 10 ng luciferase/g liver
6,"CCCCC/C=C\C/C=C\CCCCCCCCC1(CCCCCCCC/C=C\C/C=C\CCCCC)OC[C@@H](CCN(C)C)O1 [XTC2, reference compound]",80 ± 28 ng luciferase/g liver

# Same assay, conditions: 1.0 mg mRNA/kg, tail vein injection, liver 4 hours after administration; LNP 50% cationic lipid/10% DSPC/38.5% cholesterol/1.5% PEG-DMA; FLuc mRNA
row,Structure (SMILES),Liver Luc @ 1.0 mg/kg (ng luc/g liver)
1,CCCCCCCC(=O)N(CCCN1CCCC1)C(CCCCCCCCC(=O)OCC(CCCC)CCCCCC)CCCCCCCCC(=O)OCC(CCCC)CCCCCC (centres unmarked) [Compound 14],15445 ± 3693 ng luc/g liver
2,CCCCCCCCC(=O)N(CCCN1CCCC1)C(CCCCCCCCC(=O)OCC(CCCC)CCCCCC)CCCCCCCCC(=O)OCC(CCCC)CCCCCC (centres unmarked) [Compound 15],15930 ± 4711 ng luc/g liver
3,CCCCC/C=C\C/C=C\CCCCCCCCC(CCCCCCCC/C=C\C/C=C\CCCCC)C(=O)N(CCCCCCCCC)CCCN(C)C [Compound 16],1185 ± 838 ng luc/g liver
4,CCCCCCCCCCC(CCCCCCCC)COC(=O)CCCCCC(CCCCCC(=O)OCC(CCCCCCCC)CCCCCCCCCC)N(CCCN(C)C)C(=O)CCCCCCCC (centres unmarked) [Compound 41],7437 ± 1612 ng luc/g liver

# Same assay, conditions: 1.0 mg mRNA/kg, tail vein injection, liver 4 hours after administration; LNP 50% cationic lipid/10% DSPC/38.5% cholesterol/1.5% PEG-DMG; FLuc mRNA
row,Structure (SMILES),Liver Luc @ 1.0 mg/kg dose
1,"CCCCCC/C=C\C/C=C\COC(=O)CCCCCCCC(CCCCCCCC(=O)OC/C=C\CCCCCC)OC(=O)CCCN(C)C (centres unmarked) [319 (2% PEG), reference compound]",681 ± 203 ng luciferase/g liver
2,"CCCCC(CC)C(=O)OCCCCCCCCCC(CCCCCCCCCOC(=O)C(CC)CCCC)OC(=O)CCCN(C)C (centres unmarked) [Compound 137, reference compound]",588 ± 303 ng luciferase/g liver
3,"CCCCC/C=C\C/C=C\CCCCCCCCOCC(CN(C)C)OCCCCCCCC/C=C\C/C=C\CCCCC (centres unmarked) [DLinDMA, reference compound]",67 ± 20 ng luciferase/g liver
4,"CCCCC/C=C\C/C=C\CCCCCCCCC1(CCCCCCCC/C=C\C/C=C\CCCCC)OC[C@@H](CCN(C)C)O1 [XTC2, reference compound]",237 ± 99 ng luciferase/g liver

# Tested on: not listed separately
# Assay: pKa of formulated cationic lipids in lipid nanoparticles (TNS fluorescence assay)
# Assay type: physicochemical
# Settings: probe 2-(p-toluidino)-6-napthalene sulfonic acid (TNS), 1 µM final; formulated in LNP cationic lipid/DSPC/cholesterol/PEG-lipid 50/10/38.5/1.5 mol %; pH of half-maximal TNS fluorescence
# Method: As described elsewhere, the pKa of formulated cationic lipids is correlated with the effectiveness of LNPs for delivery of nucleic acids (see Jayaraman et al, Angewandte Chemie, International Edition (2012), 51(34), 8529-8533; Semple et al, Nature Biotechnology 28, 172-176 (2010)). The preferred range of pKa is ˜5 to ˜7. […] Lipid nanoparticles comprising of cationic lipid/DSPC/cholesterol/PEG-lipid (50/10/38.5/1.5 mol %) in PBS at a concentration of 0.4 mM total lipid are prepared using the in-line process as described in Example 28. TNS was prepared as a 100 μM stock solution in distilled water. Vesicles were diluted to 24 μM lipid in 2 mL of buffered solutions containing, 10 mM HEPES, 10 mM MES, 10 mM ammonium acetate, 130 mM NaCl, where the pH ranged from 2.5 to 11. An aliquot of the TNS solution was added to give a final concentration of 1 μM and following vortex mixing fluorescence intensity was measured at room temperature in a SLM Aminco Series 2 Luminescence Spectrophotometer using excitation and emission wavelengths of 321 nm and 445 nm. A sigmoidal best fit analysis was applied to the fluorescence data and the pKa was measured as the pH giving rise to half-maximal fluorescence intensity (see FIG. 2).
row,pKa,Structure (SMILES)
1,7.05,"CCCCC/C=C\C/C=C\CCCCCCCCC(CCCCCCCC/C=C\C/C=C\CCCCC)NCCCN(C)C [A, reference compound]"
2,6.33,CCCCCCCC(=O)N(CCCN1CCCC1)C(CCCCCCCCC(=O)OCC(CCCC)CCCCCC)CCCCCCCCC(=O)OCC(CCCC)CCCCCC (centres unmarked) [Compound 14]
3,6.32,CCCCCCCCC(=O)N(CCCN1CCCC1)C(CCCCCCCCC(=O)OCC(CCCC)CCCCCC)CCCCCCCCC(=O)OCC(CCCC)CCCCCC (centres unmarked) [Compound 15]
4,6.37,CCCCC/C=C\C/C=C\CCCCCCCCC(CCCCCCCC/C=C\C/C=C\CCCCC)C(=O)N(CCCCCCCCC)CCCN(C)C [Compound 16]
5,5.61,CCCCC/C=C\C/C=C\CCCCCCCCC(CCCCCCCC/C=C\C/C=C\CCCCC)N(CCCN(C)C)C(=O)CCCCCCCC(=O)OCC [Compound 37]
